The values that follow come from patent US6943187B2, “Pyrrolidine derivative hair growth compositions and uses” (GPI Nil Holdings, Inc., priority 1997, dated 2005).

pKi: −log10 of the molar value. “Also recorded” adds a separate entry of the source.

FKBP12, sequence (P62942 whole entry, species assumed): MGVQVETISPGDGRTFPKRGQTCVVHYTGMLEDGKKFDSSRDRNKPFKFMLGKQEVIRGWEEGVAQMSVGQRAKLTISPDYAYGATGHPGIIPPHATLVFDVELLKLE

The subject of the first experiment is hair growth.
Test: not given
The settings on record: topical, but not oral, application; cited from earlier work.
Turning to `C=CC[C@@H]1/C=C(\C)C[C@H](C)C[C@H](OC)[C@H]2O[C@@](O)(C(=O)C(=O)N3CCCC[C@H]3C(=O)O[C@H](/C(C)=C/[C@@H]3CC[C@@H](O)[C@H](OC)C3)[C@H](C)[C@@H](O)CC1=O)[C@H](C)C[C@@H]2OC` [FK506], the “stimulation of hair growth” value was “stimulates hair growth in a dose-dependent manner”.

The next experiment relates to C57 black 6 mice. Put plainly: In vivo hair generation test, Experiment A (topical, shaved area). The settings on record: 30 μM topical in 20% propylene glycol, 3 applications over 5 days, after six weeks; listed as GPI 1046. From the text: Care was taken not to nick or cause abrasion to the underlaying dermal layers. The animals were in anagen growth phase, as indicated by the pinkish color of the skin. […] Hair growth was quantitated by the percent of shaved area covered by new hair growth during this time period.
As for `CCC(C)(C)C(=O)C(=O)N1CCC[C@H]1C(=O)OCCCc1cccnc1` [Compound 17, 3-(3-Pyridyl)-1-propyl (2S)-1-(3,3-dimethyl-1,2-dioxopentyl)-2-pyrrolidinecarboxylate], the “hair regrowth in the shaved area” value is given as “essentially, complete hair regrowth; also recorded: essentially complete hair regrowth”.

Another experiment concerns the target FKBP12 (Homo sapiens, UniProt P62942). Description: Inhibition of peptidyl-prolyl isomerase (rotamase) activity, chymotrypsin-coupled assay (Ki test procedure). The experiment is classed as biochemical. The conditions noted are these: apparent Ki, rotamase inhibition of FKBP, substrate N-succinyl-Ala-Ala-Pro-Phe-p-nitroanilide. The method, then: The inhibition of the prolyl peptidyl cis-trans isomerase activity of FKBP may be measured as an indicator of this affinity.
The cis-trans isomerization of an alanine-proline bond in a model substrate, N-succinyl-Ala-Ala-Pro-Phe-p-nitroanilide, is monitored spectrophotometrically in a chymotrypsin-coupled assay, which releases para-nitroanilide from the trans form of the substrate. The inhibition of this reaction caused by the addition of different concentrations of inhibitor is determined, and the data is analyzed as a change in first-order rate constant as a function of inhibitor concentration to yield the apparent K1 values.
In a plastic cuvette are added 950 ml of ice cold assay buffer (25 mM HEPES, pH 7.8, 100 mM NaCl), 10 ml of FKBP (2.5 mM in 10 mM Tris-Cl pH 7.5, 100 mM NaCl, 1 mM dithiothreitol), 25 ml of chymotrypsin (50 mg/ml in 1 mM HCl) and 10 ml of test compound at various concentrations in dimethyl sulfoxide.
Regarding `O=C(CCC1CCCCC1)C(=O)N1CCC[C@H]1C(=O)OCCCc1cccnc1` [Compound 23, 3-(3-pyridyl)-1-propyl (2S)-1-(2-cyclohexylethyl-1,2-dioxoethyl)-2-pyrrolidinecarboxylate], the negative logarithm of the Ki (pKi) was 5.85. Same read-out and setting: the same measure for `CCC(C)(C)C(=O)C(=O)N1CCC[C@H]1C(=O)OCCc1cc(OC)c(OC)c(OC)c1` [Compound 16, 2-(3,4,5-trimethoxyphenyl)-1-ethyl (2S)-1-(3,3-dimethyl-1,2-dioxopentyl)-2-pyrrolidine-carboxylate]: 6.92; for `CCC(C)(C)C(=O)C(=O)N1CCC[C@H]1C(=O)OCCCc1cccnc1` [Compound 17, 3-(3-Pyridyl)-1-propyl (2S)-1-(3,3-dimethyl-1,2-dioxopentyl)-2-pyrrolidinecarboxylate]: 8.30; for `O=C(CCC1CCCCC1)C(=O)N1CCC[C@H]1C(=O)OCCCc1ccccc1` [Compound 22, 3-phenyl-1-propyl (2S)-1-(2-cyclohexyl-ethyl-1,2-dioxoethyl)-2-pyrrolidinecarboxylate]: 5.99.

For the molecule `CC(C)(C)C(=O)C(=O)N1CCC[C@H]1C(=O)OCCCc1ccccc1` [Compound 21, 3-phenyl-1-propyl (2S)-1-(2-tert-butyl-1,2-dioxoethyl)-2-pyrrolidinecarboxylate], the pKi was 7.02.

Take `CCC(C)(C)C(=O)C(=O)N1CCC[C@H]1C(=O)OCCCC1CCCCC1` [Compound 7, 3-cyclohexyl-1-propyl (2S)-1-(3,3-dimethyl-1,2-dioxopentyl)-2-pyrrolidinecarboxylate]: the negative-log Ki (pKi) was 6.70. For the molecule `CCC(C)(C)C(=O)C(=O)N1CCC[C@H]1C(=O)OCCC(c1ccccc1)c1ccccc1` [Compound 25, 3,3-diphenyl-1-propyl (2S)-1-(3,3-dimethyl-1,2-dioxopentyl)-2-pyrrolidinecarboxylate], the negative logarithm of the Ki (pKi) was 8.30. Same read-out and setting: the same measure for `CCC(C)(C)C(=O)C(=O)N1CCC[C@H]1C(=O)OCCCc1cc(OC)c(OC)c(OC)c1` [Compound 3, 3-(3,4,5-trimethoxyphenyl)-1-propyl (2S)-1-(3,3-dimethyl-1,2-dioxopentyl)-2-pyrrolidine-carboxylate]: 6.70; for `CC(C)(C)C(=O)C(=O)N1CCC[C@H]1C(=O)OCCC(c1ccccc1)c1ccccc1` [Compound 28, 3,3-Diphenyl-1-propyl (2S)-1-(3,3-dimethyl-1,2-dioxobutyl)-2-pyrrolidinecarboxylate]: 8.30; for `CCC(C)(C)C(=O)C(=O)N1CCC[C@H]1C(=O)OCCCc1cc(OC)ccc1OC` [Compound 14, 3-(2,5-dimethoxyphenyl)-1-propyl (2S)-1-(3,3-dimethyl-1,2-dioxopentyl)-2-pyrrolidine-carboxylate]: 6.60. Still for that read-out and setting: to `CCC(C)(C)C(=O)C(=O)N1CCC[C@H]1C(=O)OCCCc1ccc2c(c1)OCO2` [Compound 5, 3-(4,5-methylenedioxyphenyl)-1-propyl (2S)-1-(3,3-dimethyl-1,2-dioxopentyl)-2-pyrrolidine-carboxylate] belongs 6.77; to `CCC(C)(C)C(=O)C(=O)N1CCC[C@H]1C(=O)OCCCc1ccccn1` [Compound 18, 3-(2-Pyridyl)-1-propyl (2S)-1-(3,3-dimethyl-1,2-dioxopentyl)-2-pyrrolidinecarboxylate], 6.71. `CC(C)(C)C(=O)C(=O)N1CCC[C@H]1C(=O)OCCCc1cccnc1` [Compound 24, 3-(3-pyridyl)-1-propyl (2S)-1-(2-tert-butyl-1,2-dioxoethyl)-2-pyrrolidinecarboxylate]: the negative-log Ki (pKi) is 8.52. Same read-out and setting: to `CCC(C)(C)C(=O)C(=O)N1CCC[C@H]1C(=O)OCCCc1ccncc1` [Compound 19, 3-(4-Pyridyl)-1-propyl (2S)-1-(3,3-dimethyl-1,2-dioxopentyl)-2-pyrrolidinecarboxylate] belongs 7.64.

As usually defined, the pKi is the Ki on a negative log10 scale, so that one unit is a factor of ten.
